Assay results published in patent publication US9282744B2, “Synergistic fungicide composition” (JIANGSU HUIFENG AGROCHEMICAL CO., LTD., priority 2012, dated 2016).
Converted amounts (≈) assume the structure as drawn.

Columns and labels:
[1] = test system: cucumber downy mildew pathogenic fungi; test: Test of toxicity of compound benziothiazolinone and iprodione on cucumber downy mildew; assay type: in vivo; conditions: for ATI (actual toxicity index): benziothiazolinone as standard = 100; for EC50: cucumber downy mildew, Table 3
Method: (§1) The incidence of whole cucumber leaves was investigated according to test grading level, and the disease index and the prevention and treatment effect were calculated.
(§2) The prevention and treatment effect was converted into probability values (y), the heights of the chemicals (μg/ml) were converted into logarithm values (x), the toxicity equation and the median inhibition concentration EC50 were calculated by the least square method, and the toxicity index level co-toxicity coefficient (CTC) of the chemicals was calculated according to the Sun Yunpei's method. Actual toxicity index(ATI)=(EC50 of the standard reagent/EC50 of the test reagent)×100 Theoretical toxicity index(TTI)=the toxicity index of chemicalA×the percentage of A in the mixture+the toxicity index of chemical B×the percentage of B in the mixture Co-toxicity coefficient(CTC)=[Actual toxicity index(ATI) of the mixture/Theoretical toxicity index(TTI) of the mixture][…]
3. Test of Toxicity of Compound Benziothiazolinone and Iprodione on Cucumber Downy Mildew

[2] = test system: cucumber downy mildew pathogenic fungi; test: Test of toxicity of compound benziothiazolinone and dimethomorph on cucumber downy mildew; assay type: in vivo; conditions: for ATI (actual toxicity index): benziothiazolinone as standard = 100; for EC50: cucumber downy mildew, Table 2
Method: as §1, §2
2. Test of Toxicity of Compound Benziothiazolinone and Dimethomorph on Cucumber Downy Mildew

[3] = test system: cucumber downy mildew pathogenic fungi; test: Test of toxicity of compound benziothiazolinone and epoxiconazol on cucumber downy mildew; assay type: in vivo; conditions: for ATI (actual toxicity index): benziothiazolinone as standard = 100; for EC50: cucumber downy mildew, Table 4
Method: as §1, §2
4. Test of Toxicity of Compound Benziothiazolinone and Epoxiconazol on Cucumber Downy Mildew

[4] = test system: cucumber downy mildew pathogenic fungi; test: Test of toxicity of compound benziothiazolinone and dithianon on cucumber downy mildew pathogenic fungi; assay type: in vivo; conditions: for ATI (actual toxicity index): benziothiazolinone as standard = 100; for EC50: cucumber downy mildew, Table 1
Method: 1. Test of Toxicity of Compound Benziothiazolinone and Dithianon on Cucumber Downy Mildew Pathogenic Fungi
Subjects for Test: Cucumber Downy Mildew Pathogenic Fungi
as §1, §2

[5] = test system: oomycetes fungi; conditions: formation stages of sporangiophores and oospores of oomycetes; cited from earlier work
[6] = Cucumis sativus, read-out: EC50

| SMILES | ATI (actual toxicity index) [1] | ATI (actual toxicity index) [2] | ATI (actual toxicity index) [3] | EC50 [3] [µg/mL] | ATI (actual toxicity index) [4] | also measured |
| --- | --- | --- | --- | --- | --- | --- |
| O=c1[nH]sc2ccccc12 [Benziothiazolinone] | 100.00 | 100.0 | 100.00 | 3.81 (≈ 25.2 µM) | 100.0 | EC50 [1]: 4.21 µg/mL (≈ 27.8 µM); EC50 [2]: 4.08 µg/mL (≈ 27 µM); EC50 [4]: 3.25 µg/mL (≈ 21.5 µM) |
| COc1ccc(C(=CC(=O)N2CCOCC2)c2ccc(Cl)cc2)cc1OC [Dimethomorph] | – | 63.9 | – | – | – | EC50 [2, 6]: 6.36 µg/mL (≈ 16.4 µM); concentration at which inhibited [5]: 0.25 µg/mL |
| N#Cc1sc2c(=O)c3ccccc3c(=O)c=2sc1C#N [Dithianon] | – | – | – | – | 60.1 | EC50 [4, 6]: 5.41 µg/mL (≈ 18.3 µM) |
| Fc1ccc([C@]2(Cn3cncn3)O[C@H]2c2ccccc2Cl)cc1 [Epoxiconazol] | – | – | 89.65 | 4.25 (≈ 12.9 µM) | – | – |
| CC(C)NC(=O)N1CC(=O)N(c2cc(Cl)cc(Cl)c2)C1=O [Iprodione] | 72.34 | – | – | – | – | EC50 [1, 6]: 5.82 µg/mL (≈ 17.6 µM) |
